Test results published in ChEMBL document CHEMBL1141124 (J Med Chem, 2005).
Starred links: 1 amine or outer side, 2 acyl side, 3 side chain; linkers in the order of their positions; H or OH if unused. Non-standard residues stand in square brackets, D forms with d. Residues, ends and D or L forms follow the SMILES beside them. X2 = O=C(c1cc(CN[*:1])cc(Cc2ccc(O)cc2)c1)[*:2]; X1 = O=C(c1cc(Cc2ccc(O)cc2)cc(N[*:1])c1)[*:2]; Phe(4-NH2) = Nc1ccc(C[C@H](N)C(=O)O)cc1

Molecular target: T1, Type-1 angiotensin II receptor B (Rattus norvegicus, UniProt P29089)
T1 sequence (P29089 whole entry): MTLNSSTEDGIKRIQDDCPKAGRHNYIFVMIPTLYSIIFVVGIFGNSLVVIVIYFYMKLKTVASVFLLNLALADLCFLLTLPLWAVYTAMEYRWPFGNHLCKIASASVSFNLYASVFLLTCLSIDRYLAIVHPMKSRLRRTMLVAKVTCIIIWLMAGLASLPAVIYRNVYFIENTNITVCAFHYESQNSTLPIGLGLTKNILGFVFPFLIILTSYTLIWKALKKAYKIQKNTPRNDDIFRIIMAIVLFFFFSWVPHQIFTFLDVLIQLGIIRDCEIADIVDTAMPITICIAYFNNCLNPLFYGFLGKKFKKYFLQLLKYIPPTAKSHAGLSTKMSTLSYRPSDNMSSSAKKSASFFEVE
Test: Binding affinity for angiotensin II receptor, type 1 in rat liver membrane using [125I]-Ang II as radioligand, in pH 7.4 Tris-HCl buffer for 2 hr at 25 degree C
Type: cell membranes

Row | SMILES | Ki
1 | CC[C@H](C)[C@H](NC(=O)[C@H](Cc1ccc(O)cc1)NC(=O)[C@@H](NC(=O)[C@H](CCCNC(=N)N)NC(=O)CNC)C(C)C)C(=O)N[C@@H](Cc1cnc[nH]1)C(=O)N1CCC[C@H]1C(=O)N[C@@H](Cc1ccccc1)C(=O)O | 0.00016 µM
2 | CC[C@H](C)[C@H](NC(=O)[C@H](Cc1ccc(O)cc1)NC(=O)[C@@H](NC(=O)[C@H](CCCN=C(N)N)NC(=O)[C@@H](N)CC(=O)O)C(C)C)C(=O)N[C@@H](Cc1ccc(N)cc1)C(=O)N1CCC[C@H]1C(=O)N[C@@H](Cc1ccccc1)C(=O)O (H-DRVYI[Phe(4-NH2)]PF-OH) | > 10 µM
3 | CC(C)[C@H](NC(=O)[C@H](CCCN=C(N)N)NC(=O)[C@@H](N)CC(=O)O)C(=O)Nc1cc(Cc2ccc(O)cc2)cc(C(=O)N[C@@H](Cc2c[nH]cn2)C(=O)N2CCC[C@H]2C(=O)N[C@@H](Cc2ccccc2)C(=O)O)c1 (H-DRV[X1]HPF-OH) | 0.0303 µM
4 | N=C(N)NCCC[C@H](NC(=O)[C@@H](N)CC(=O)O)C(=O)Nc1cc(Cc2ccc(O)cc2)cc(C(=O)N[C@@H](Cc2cnc[nH]2)C(=O)N2CCC[C@H]2C(=O)N[C@@H](Cc2ccccc2)C(=O)O)c1 (H-DR[X1]HPF-OH) | > 10 µM

Next, values leading:

Row | Ki | SMILES
5 | > 10 µM | CC(C)[C@H](NC(=O)[C@H](CCCN=C(N)N)NC(=O)[C@@H](N)CC(=O)O)C(=O)NCc1cc(Cc2ccc(O)cc2)cc(C(=O)N[C@@H](Cc2c[nH]cn2)C(=O)N2CCC[C@H]2C(=O)N[C@@H](Cc2ccccc2)C(=O)O)c1 (H-DRV[X2]HPF-OH)
6 | > 10 µM | NC(N)=NCCC[C@H](NC(=O)[C@@H](N)CC(=O)O)C(=O)NCc1cc(Cc2ccc(O)cc2)cc(C(=O)N[C@@H](Cc2c[nH]cn2)C(=O)N2CCC[C@H]2C(=O)N[C@@H](Cc2ccccc2)C(=O)O)c1 (H-DR[X2]HPF-OH)
7 | > 10 µM | CC[C@H](C)[C@H](NC(=O)c1cc(CNC(=O)[C@H](CCCN=C(N)N)NC(=O)[C@@H](N)CC(=O)O)cc(Cc2ccc(O)cc2)c1)C(=O)N[C@@H](Cc1c[nH]cn1)C(=O)N1CCC[C@H]1C(=O)N[C@@H](Cc1ccccc1)C(=O)O (H-DR[X2]IHPF-OH)
